Experimental data reported in patent US20260248972A1, “DUAL RECEPTOR TARGETING RADIOLIGANDS AND USES THEREOF RELATED APPLICATIONS” (priority 2022, published 2026).

What was measured:
CCK2R [1] = target: T1, CCK2R (Homo sapiens, UniProt P32239); assay: Competitive binding (FACS) on CCK2R-transfected HEK 293T cells with Cy5-labeled Z360; conditions: HEK 293T transfected, Cy5-labeled Z360 competitive ligand (Table 3)
T1 construct: expressed in transfected cells; host or cells: HEK 293T cells
T1 sequence (P32239 1-447): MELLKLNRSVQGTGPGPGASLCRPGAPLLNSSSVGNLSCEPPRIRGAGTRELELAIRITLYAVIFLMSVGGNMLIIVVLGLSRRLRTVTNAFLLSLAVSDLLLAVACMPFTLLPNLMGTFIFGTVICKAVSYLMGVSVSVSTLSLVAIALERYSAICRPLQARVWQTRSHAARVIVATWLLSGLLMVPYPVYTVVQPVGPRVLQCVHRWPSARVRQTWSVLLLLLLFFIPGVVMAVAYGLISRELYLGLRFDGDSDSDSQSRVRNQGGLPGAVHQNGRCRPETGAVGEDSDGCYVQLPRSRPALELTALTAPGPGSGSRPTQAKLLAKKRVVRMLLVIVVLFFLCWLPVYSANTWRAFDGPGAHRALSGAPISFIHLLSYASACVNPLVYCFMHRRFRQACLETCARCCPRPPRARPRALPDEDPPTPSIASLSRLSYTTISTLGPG
Method: Binding Affinity Tested by Using Cy5-Labled Competitive Ligands.
HEK 293T cells were transfected with SSTR2 or CCK2R-expressing plasmid by Lipofectamine 2000 reagent. 24 hours after transfection, cells were harvested and suspended with assay buffer (1% OVA in DMEM). […] The testing compound was further supplemented into the wells at different concentrations. After incubation for 1 hour at dark, cells were washed and suspended in FACS buffer (1% OVA in DPBS). The fluorescent signal was detected by FACS machine and the binding affinity of the testing compound was evaluated by calculation of IC50 for competitive binding of reference compound.

CCK2R [2] = target: T1, CCK2R; assay: Competitive binding (FACS) on CCK2R-transfected HEK 293T cells with Cy5-labeled F11N derivative; conditions: HEK 293T transfected, Cy5-labeled F11N derivative competitive ligand (Table 4); read-out: CCK2R IC50
in vivo = conditions: BALB/c nude, mouse, in vivo, iv, total radioactivity
In short: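 Tissue uptake given as % ID and % ID/g from γ counting of organs taken 4, 24 and 72 h after injection into BALB/c nude mice carrying subcutaneous AR42J xenografts (0.05-0.50 g). Tracers were ^177Lu-labelled at 95° C for 15 min in pH 4.5 NaOAc buffer and used neat or diluted in PBS containing 3 mg/mL ascorbate.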

With `C[C@@H](O)[C@H](NC(=O)[C@@H]1CSSC[C@H](NC(=O)[C@@H](Cc2ccccc2)NC(=O)[C@H](CCCCNC(=O)[C@H](CCC(=O)O)NC(=O)c2cccc(NC(=O)N[C@@H]3CN(C4CCCCC4)c4ccccc4N(CC(=O)C(C)(C)C)C3=O)c2)NC(=O)CN2CCN(CC(=O)O)CCN(CC(=O)O)CCN(CC(=O)O)CC2)C(=O)N[C@@H](Cc2ccc(O)cc2)C(=O)N[C@H](Cc2c[nH]c3ccccc23)C(=O)N[C@@H](CCCCN)C(=O)N[C@@H]([C@@H](C)O)C(=O)N1)C(=O)O` [Compound I-25, DOTA-K(-E-Z360)-f[CYwKTC]T-OH] the IC50 (CCK2R [1]) was 1.36 nM.
For `C[C@@H](O)[C@H](NC(=O)[C@@H]1CSSC[C@H](NC(=O)[C@@H](Cc2ccccc2)NC(=O)[C@H](CCCCNC(=O)CC[C@H](NC(=O)CNC(=O)c2cccc(NC(=O)N[C@@H]3CN(C4CCCCC4)c4ccccc4N(CC(=O)C(C)(C)C)C3=O)c2)C(=O)O)NC(=O)CN2CCN(CC(=O)O)CCN(CC(=O)O)CCN(CC(=O)O)CC2)C(=O)N[C@@H](Cc2ccc(O)cc2)C(=O)N[C@H](Cc2c[nH]c3ccccc23)C(=O)N[C@@H](CCCCN)C(=O)N[C@@H]([C@@H](C)O)C(=O)N1)C(=O)O` [Compound I-26, DOTA-K(-gE-G-Z360)-f[CYwKTC]T-OH], the IC50 (CCK2R [1]) was 2.67 nM.
`CCCC[C@H](NC(=O)[C@H](Cc1c[nH]c2ccccc12)NC(=O)CNC(=O)[C@H](Cc1ccc(O)cc1)NC(=O)[C@H](C)NC(=O)[C@@H](CCC(=O)O)NC(=O)[C@@H](CCC(=O)O)NC(=O)[C@@H](CCC(=O)O)NC(=O)[C@@H](CCC(=O)O)NC(=O)[C@@H](CCC(=O)O)NC(=O)[C@@H](CCC(=O)O)NC(=O)CN1CCN(CC(=O)O)CCN(CC(=O)O)CCN(CC(=O)O)CC1)C(=O)N[C@@H](CC(=O)O)C(=O)N[C@@H](Cc1ccccc1)C(N)=O` [Compound C5, DOTA-e-e-e-e-e-e-Ala-Tyr-Gly-Trp-Nle-Asp-Phe-NH2, reference compound] gave an IC50 (CCK2R [2]) of 25.7 nM.
For `C[C@@H](O)[C@H](NC(=O)[C@@H]1CSSC[C@H](NC(=O)[C@@H](Cc2ccccc2)NC(=O)[C@H](CCCCNC(=O)COCCOCCNC(=O)[C@H](CCC(=O)O)NC(=O)c2cccc(NC(=O)N[C@@H]3CN(C4CCCCC4)c4ccccc4N(CC(=O)C(C)(C)C)C3=O)c2)NC(=O)CN2CCN(CC(=O)O)CCN(CC(=O)O)CCN(CC(=O)O)CC2)C(=O)N[C@@H](Cc2ccc(O)cc2)C(=O)N[C@H](Cc2c[nH]c3ccccc23)C(=O)N[C@@H](CCCCN)C(=O)N[C@@H]([C@@H](C)O)C(=O)N1)C(=O)O` [Compound I-28, DOTA-K(-OEG-E-Z360)-f[CYwKTC]T-OH], the IC50 (CCK2R [1]) was 4.84 nM.
`C[C@@H](O)[C@H](NC(=O)[C@@H]1CSSC[C@H](NC(=O)[C@@H](Cc2ccccc2)NC(=O)COCCOCCNC(=O)[C@H](CCCCNC(=O)CC[C@H](NC(=O)CNC(=O)c2cccc(NC(=O)N[C@@H]3CN(C4CCCCC4)c4ccccc4N(CC(=O)C(C)(C)C)C3=O)c2)C(=O)O)NC(=O)CN2CCN(CC(=O)O)CCN(CC(=O)O)CCN(CC(=O)O)CC2)C(=O)N[C@@H](Cc2ccc(O)cc2)C(=O)N[C@H](Cc2c[nH]c3ccccc23)C(=O)N[C@@H](CCCCN)C(=O)N[C@@H]([C@@H](C)O)C(=O)N1)C(=O)O` [Compound I-1, DOTA-K(-gE-G-Z360)-OEG-f[CYwKTC]T-OH] showed an IC50 (CCK2R [1]) of 7.32 nM, a tissue uptake at 24 h (in vivo; uptake Kidney) of 14 %ID/g and a tissue uptake at 24 h (in vivo; uptake Liver) of 2.86 %ID/g. The tissue uptake at 24 h (in vivo; uptake Pancreas) was 1.6 %ID/g, the tissue uptake at 24 h (in vivo; uptake Spleen) was 1.6 %ID/g and the tissue uptake at 24 h (in vivo; uptake Stomach) was 2.53 %ID/g. It also gave a tissue uptake at 24 h (in vivo; uptake Tumor) of 17.1 %ID/g.
With `C[C@@H](O)[C@H](NC(=O)[C@@H]1CSSC[C@H](NC(=O)[C@@H](Cc2ccccc2)NC(=O)COCCOCCNC(=O)COCCOCCNC(=O)CC[C@H](NC(=O)[C@H](CCCCNC(=O)c2cccc(NC(=O)CC3CN(C4CCCCC4)c4ccccc4N(CC(=O)C(C)(C)C)C3=O)c2)NC(=O)CN2CCN(CC(=O)O)CCN(CC(=O)O)CCN(CC(=O)O)CC2)C(=O)O)C(=O)N[C@@H](Cc2ccc(O)cc2)C(=O)N[C@H](Cc2c[nH]c3ccccc23)C(=O)N[C@@H](CCCCN)C(=O)N[C@@H]([C@@H](C)O)C(=O)N1)C(=O)O` (stereo partly shown) [Compound I-74, DOTA-K(Z360)-gGlu-OEG-OEG-f]CYwKTC]T-OH] the IC50 (CCK2R [2]) was 56.7 nM.
`C[C@@H](O)[C@H](NC(=O)[C@@H]1CSSC[C@H](NC(=O)[C@@H](Cc2ccccc2)NC(=O)[C@H](CCCCNC(=O)COCCOCCNC(=O)COCCOCCNC(=O)[C@H](CCC(=O)O)NC(=O)c2cccc(NC(=O)N[C@@H]3CN(C4CCCCC4)c4ccccc4N(CC(=O)C(C)(C)C)C3=O)c2)NC(=O)CN2CCN(CC(=O)O)CCN(CC(=O)O)CCN(CC(=O)O)CC2)C(=O)N[C@@H](Cc2ccc(O)cc2)C(=O)N[C@H](Cc2c[nH]c3ccccc23)C(=O)N[C@@H](CCCCN)C(=O)N[C@@H]([C@@H](C)O)C(=O)N1)C(=O)O` [Compound I-29, DOTA-K(-OEG-OEG-E-Z360)-f[CYwKTC]T-OH] gave an IC50 (CCK2R [1]) of 0.46 nM.
`C[C@@H](O)[C@H](NC(=O)[C@@H]1CSSC[C@H](NC(=O)[C@@H](Cc2ccccc2)NC(=O)CCCCCNC(=O)CCCCCNC(=O)[C@H](CCCCNC(=O)[C@H](CCC(=O)O)NC(=O)c2cccc(NC(=O)N[C@@H]3CN(C4CCCCC4)c4ccccc4N(CC(=O)C(C)(C)C)C3=O)c2)NC(=O)CCC(C(=O)O)N2CCN(CC(=O)O)CCN(CC(=O)O)CCN(CC(=O)O)CC2)C(=O)N[C@@H](Cc2ccc(O)cc2)C(=O)N[C@H](Cc2c[nH]c3ccccc23)C(=O)N[C@@H](CCCCN)C(=O)N[C@@H]([C@@H](C)O)C(=O)N1)C(=O)O` (stereo partly shown) [Compound I-72, DOTAGA- K(-Glu- Z360)- Ahx- Ahx- f[CYwKTC]T- OH] showed an IC50 (CCK2R [2]) of 5.53 nM.
Compound `C[C@@H](O)[C@H](NC(=O)[C@@H]1CSSC[C@H](NC(=O)[C@@H](Cc2ccccc2)NC(=O)COCCOCCNC(=O)[C@H](CCCCNC(=O)COCCOCCNC(=O)[C@H](CCC(=O)O)NC(=O)c2cccc(NC(=O)N[C@@H]3CN(C4CCCCC4)c4ccccc4N(CC(=O)C(C)(C)C)C3=O)c2)NC(=O)CN2CCN(CC(=O)O)CCN(CC(=O)O)CCN(CC(=O)O)CC2)C(=O)N[C@@H](Cc2ccc(O)cc2)C(=O)N[C@H](Cc2c[nH]c3ccccc23)C(=O)N[C@@H](CCCCN)C(=O)N[C@@H]([C@@H](C)O)C(=O)N1)C(=O)O` [Compound I-30, DOTA-K(-OEG-E-Z360)-OEG-f[CYwKTC]T-OH] has an IC50 (CCK2R [1]) of 1.28 nM.
For `CC(O)[C@H](NC(=O)[C@@H]1CSSC[C@H](NC(=O)[C@@H](Cc2ccccc2)NC(=O)COCCOCCNC(=O)[C@H](CCCCNC(=O)CCC(NC(=O)CNC(=O)c2cccc(NC(=O)N[C@@H]3CN(C4CCCCC4)c4ccccc4N(CC(=O)C(C)(C)C)C3=O)c2)C(=O)O)NC(=O)COCCOCCNC(=O)COCCOCCNC(=O)CC[C@H](NC(=O)CN2CCN(CC(=O)O)CCN(CC(=O)O)CCN(CC(=O)O)CC2)C(=O)O)C(=O)N[C@@H](Cc2ccc(O)cc2)C(=O)N[C@H](Cc2c[nH]c3ccccc23)C(=O)N[C@@H](CCCCN)C(=O)N[C@@H]([C@@H](C)O)C(=O)N1)C(=O)O` (stereo in doubt) [Compound I-21, DOTA-gE-OEG-OEG-K(-gE-G-Z360)-OEG-f[CYwKTC]T-OH], the IC50 (CCK2R [1]) was 7.13 nM.
